Values of other authors as cited in patent US20060246505A1, “Modulation of the synthesis of insulin” (priority 2003, published 2006).

System: signalling pathways that trigger transcription
Details: glucose-triggered resynthesis of insulin in beta cells; prior-art statement

For `C[S+]([O-])c1ccc(-c2nc(-c3ccncc3)c(-c3ccc(F)cc3)[nH]2)cc1` (stereo not shown) [SB 203580], the “inhibition of the signalling pathways that trigger transcription (resynthesis of insulin)” value is listed as “can be inhibited”.
